Test results published in US20230391772A1, “METHODS AND COMPOSITIONS FOR TARGETED PROTEIN DEGRADATION” (Ranok Therapeutics (Hangzhou) Co. Ltd., priority 2020, published 2023).

Legend:
[1] = test system: NCI-H358 human non-small cell lung cancer; test: NCI-H358 CCK-8 proliferation assay; assay type: cell-based; conditions: NCI-H358 cells, 72 hr
Method: The following cancer cell lines were employed: BT-474 human breast carcinoma (ATCC, #HTB-20); MIA PaCa-2 human pancreatic carcinoma [2 copies KRAS(G12C)](ATCC, #CRL-1420); NCI-H23 human non-small cell lung cancer [1 copy KRAS(G12C)](ATCC, #CRL-5800); NCI-H358 human non-small cell lung cancer [1 copy KRAS(G12C)](ATCC, #CRL-5807); LU65A human lung carcinoma (Pharmaron, Beijing, China). Cell lines were cultured essentially according to ATCC and Pharmaron recommendations.
Cancer Cell Line Proliferation (CCK-8) Assays
3-fold serial dilutions of each test compound were prepared ranging from 20 μM to 1.02 nM.
% Inhibition=100−(D−B)/(S−B)*100%. • S: Absorbance of cells treated with DMSO • D: Absorbance of compound-treated cells • B: Absorbance of medium with DMSO without cells

HSP90a protein = molecular target: T1, HSP90a protein (Homo sapiens, UniProt P07900); test: HSP90α-binding fluorescent polarization (FP) assay, BODIPY-labeled RNK04010 probe; conditions: FP competition with RNK04010 (BODIPY-labeled), 5 nM, 300 min at 25° C.
T1 construct: purchased BPS Bioscience 50298
Procedure, shortened: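 Polarization signal was read after equilibration at 25° C, for 120 min with FITC-geldanamycin or 300 min with the BODIPY-tagged RNK04010 probe, each at 5 nM final. Compounds spanned 20 μM down to 5.2 nM in 2.5-fold dilutions against the HSP90a N-terminal domain.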

| SMILES | EC50 [1] [µM] | IC50 (HSP90a protein) [µM] |
| --- | --- | --- |
| C=CC(=O)N1CCN(c2nc(NCCC(=O)NCc3ccc(-n4c(O)nnc4-c4cc(CCC)c(O)cc4O)cc3)nc3c2CCN(c2cccc4cccc(Cl)c24)C3)C[C@H]1CC#N [Compound 89, (R)-3-((4-(4-acryloyl-3-(cyanomethyl)piperazin-1-yl)-7-(8-chloronaphthalen-1-yl)-5,6,7,8-tetrahydropyrido[3,4-d]pyrimidin-2-yl)amino)-N-(4-(3-(2,4-dihydroxy-5-propylphenyl)-5-hydroxy-4H-1,2,4-triazol-4-yl)benzyl)propenamide] | > 1 | > 1 |
| C=CC(=O)N1CCN(c2nc(NCCC(=O)N3CCN(Cc4ccc5c(c4)CN(C(=O)c4cc(CCC)c(O)cc4O)C5)CC3)nc3c2CCN(c2cc(O)cc4ccccc24)C3)CC1 [Compound 94, 1-(4-(2-((3-(4-((2-(2,4-dihydroxy-5-propylbenzoyl)isoindolin-5-yl)methyl)piperazin-1-yl)-3-oxopropyl)amino)-7-(3-hydroxynaphthalen-1-yl)-5,6,7,8-tetrahydropyrido[3,4-d]pyrimidin-4-yl)piperazin-1-yl)prop-2-en-1-one, trifluoroacetic acid] | > 1 | > 1 |
| C=CC(=O)N1CCN(c2nc(NCCC(=O)NCc3ccc(-n4c(O)nnc4-c4cc(C(C)C)c(O)cc4O)cc3)nc3c2CCN(c2cccc4ccccc24)C3)C[C@H]1CC#N [Compound 91, (R)-3-((4-(4-acryloyl-3-(cyanomethyl)piperazin-1-yl)-7-(naphthalen-1-yl)-5,6,7,8-tetrahydropyrido[3,4-d]pyrimidin-2-yl)amino)-N-(4-(3-(2,4-dihydroxy-5-isopropylphenyl)-5-hydroxy-4H-1,2,4-triazol-4-yl)benzyl)propanamide, trifluoroacetic acid] | > 1 | > 1 |
| CCc1cc(-c2nnc(O)n2-c2ccc(CNC(=O)CCNc3nc4c(c(N5CCN(C(C)=O)CC5)n3)CCN(c3cc(O)cc5ccccc35)C4)c(C(F)(F)F)c2)c(O)cc1O [Compound 53, 3-((4-(4-acetylpiperazin-1-yl)-7-(3-hydroxynaphthalen-1-yl)-5,6,7,8-tetrahydropyrido[3,4-d]pyrimidin-2-yl)amino)-N-(4-(3-(5-ethyl-2,4-dihydroxyphenyl)-5-hydroxy-4H-1,2,4-triazol-4-yl)-2-(trifluoromethyl)benzyl)propanamide, trifluoroacetic acid] | > 1 | > 1 |
| C=CC(=O)N1CCN(c2nc(NCCC(=O)N3CCN(c4ccc(-n5c(O)nnc5-c5cc(C(C)C)c(O)cc5O)cc4)CC3)nc3c2CCN(c2cccc4cccc(Cl)c24)C3)C[C@H]1CC#N [Compound 88, (R)-2-(1-acryloyl-4-(7-(8-chloronaphthalen-1-yl)-2-((3-(4-(4-(3-(2,4-dihydroxy-5-isopropylphenyl)-5-hydroxy-4H-1,2,4-triazol-4-yl)phenyl)piperazin-1-yl)-3-oxopropyl)amino)-5,6,7,8-tetrahydropyrido[3,4-d]pyrimidin-4-yl)piperazin-2-yl)acetonitrile, trifluoroacetic acid] | > 1 | 0.1 to 1 |
| C=CC(=O)N1CCN(c2nc(NCCC(=O)NCc3ccc(-n4c(O)nnc4-c4cc(C(C)C)c(O)cc4O)cc3F)nc3c2CCN(c2cccc4cccc(Cl)c24)C3)C[C@H]1CC#N [Compound 97, (R)-3-((4-(4-acryloyl-3-(cyanomethyl)piperazin-1-yl)-7-(8-chloronaphthalen-1-yl)-5,6,7,8-tetrahydropyrido[3,4-d]pyrimidin-2-yl)amino)-N-(4-(3-(2,4-dihydroxy-5-isopropylphenyl)-5-hydroxy-4H-1,2,4-triazol-4-yl)-2-fluorobenzyl)propanamide, trifluoroacetic acid] | > 1 | 0.1 to 1 |

Other lines, results leading:

| EC50 [1] [µM] | IC50 (HSP90a protein) [µM] | SMILES |
| --- | --- | --- |
| > 1 | 0.1 to 1 | CCc1cc(C(=O)N2Cc3ccc(CN4CCN(C(=O)CCNc5nc6c(c(N7CCN(C(C)=O)CC7)n5)CCN(c5cc(O)cc7ccccc57)C6)CC4)cc3C2)c(O)cc1O [Compound 67, 3-((4-(4-acetylpiperazin-1-yl)-7-(3-hydroxynaphthalen-1-yl)-5,6,7,8-tetrahydropyrido[3,4-d]pyrimidin-2-yl)amino)-1-(4-((2-(5-ethyl-2,4-dihydroxybenzoyl)isoindolin-5-yl)methyl)piperazin-1-yl)propan-1-one, trifluoroacetic acid] |
| > 1 | 0.1 to 1 | CCC(=O)N1CCN(c2nc(NCCC(=O)N3CCN(Cc4ccc(-n5c(O)nnc5-c5cc(C(C)C)c(O)cc5O)cc4)CC3)nc3c2CCN(c2cc(O)cc4ccccc24)C3)CC1 [Compound 35, 1-(4-(4-(3-(2,4-dihydroxy-5-isopropylphenyl)-5-hydroxy-4H-1,2,4-triazol-4-yl)benzyl)piperazin-1-yl)-3-((7-(3-hydroxynaphthalen-1-yl)-4-(4-propionylpiperazin-1-yl)-5,6,7,8-tetrahydropyrido[3,4-d]pyrimidin-2-yl)amino)propan-1-one, trifluoroacetic acid] |
| > 1 | 0.1 to 1 | C=CC(=O)N1CCN(c2nc(NCCC(=O)NCCOc3ccc(-n4c(O)nnc4-c4cc(C(C)C)c(O)cc4O)cc3)nc3c2CCN(c2cc(O)cc4ccccc24)C3)CC1 [Compound 3, 3-((4-(4-acryloylpiperazin-1-yl)-7-(3-hydroxynaphthalen-1-yl)-5,6,7,8-tetrahydropyrido[3,4-d]pyrimidin-2-yl)amino)-N-(2-(4-(3-(2,4-dihydroxy-5-isopropylphenyl)-5-hydroxy-4H-1,2,4-triazol-4-yl)phenoxy)ethyl)propanamide, trifluoroacetic acid] |
| > 1 | 0.1 to 1 | CCC(=O)N1CCN(c2nc(NCCC(=O)N3CCC(Cc4ccc(-n5c(O)nnc5-c5cc(C(C)C)c(O)cc5O)cc4)CC3)nc3c2CCN(c2cc(O)cc4ccccc24)C3)CC1 [Compound 38, 1-(4-(4-(3-(2,4-dihydroxy-5-isopropylphenyl)-5-hydroxy-4H-1,2,4-triazol-4-yl)benzyl)piperidin-1-yl)-3-((7-(3-hydroxynaphthalen-1-yl)-4-(4-propionylpiperazin-1-yl)-5,6,7,8-tetrahydropyrido[3,4-d]pyrimidin-2-yl)amino)propan-1-one, trifluoroacetic acid] |
| > 1 | 0.1 to 1 | CCC(=O)N1CCN(c2nc(NCCC(=O)NCc3ccc(-n4c(O)nnc4-c4cc(CC)c(O)cc4O)cc3)nc3c2CCN(c2cc(O)cc4ccccc24)C3)CC1 [Compound 37, N-(4-(3-(5-ethyl-2,4-dihydroxyphenyl)-5-hydroxy-4H-1,2,4-triazol-4-yl)benzyl)-3-((7-(3-hydroxynaphthalen-1-yl)-4-(4-propionylpiperazin-1-yl)-5,6,7,8-tetrahydropyrido[3,4-d]pyrimidin-2-yl)amino)propanamide, trifluoroacetic acid] |
| > 1 | 0.1 to 1 | CC(=O)N1CCN(c2nc(NCCC(=O)N3CCN(Cc4ccc(-n5c(O)nnc5-c5cc(C(C)C)c(O)cc5O)cc4)CC3)nc3c2CCN(c2cc(O)cc4ccccc24)C3)CC1 [Compound 26, 3-((4-(4-acetylpiperazin-1-yl)-7-(3-hydroxynaphthalen-1-yl)-5,6,7,8-tetrahydropyrido[3,4-d]pyrimidin-2-yl)amino)-1-(4-(4-(3-(2,4-dihydroxy-5-isopropylphenyl)-5-hydroxy-4H-1,2,4-triazol-4-yl)benzyl)piperazin-1-yl)propan-1-one, trifluoroacetic acid] |
